Measurements as given in PubChem BioAssay AID1159563 (GlaxoSmithKline (GSK), 2015).
Activity calls are given as the source filed them. No rule for the calls is given here.

Tested on: HepG2 cytotoxicity
Assay: HepG2 cell cytotoxicity, cytotoxicity control (AID 1159563)

`Cc1nc2nc(C)c(Cc3ccc(C(C)C)cc3)c(=O)n2[nH]1` was tested, and the IC50 was > 100 µM (inactive).

`CCN(CC)S(=O)(=O)c1ccc(C)c(NC(=O)c2cc(Cl)c3c(c2)OCO3)c1` was tested, and the IC50 was > 100 µM (inactive).

With `COc1ccc(-c2cnc(NC(=O)c3ccc(F)cc3)n2C)cc1` the IC50 was > 100 µM (inactive).

Work on `COc1ccc(Nc2nc(-c3ccccn3)cc(N3CCCC(O)C3)n2)cc1` (stereo not drawn) yielded an IC50 of 40 µM.

In the case of `COc1cccc(CN(C)Cc2nc(N)c3c(C)c(C)sc3n2)c1`, the IC50 is reported as 40 µM.

Compound `Nc1nc(-c2ccccn2)nc(N)c1Cc1c(F)cccc1Cl` has an IC50 of 20 µM.

`O=C(Nc1nc2cc(Cl)ccc2o1)c1cccc(Cl)c1` was tested, and the IC50 was > 100 µM (inactive).

`Cc1cc(N(C)C)nc2ccc(Cc3cnc(N)nc3N)cc12` was tested, and the IC50 was 32 µM.

For `O=C(NCCc1cccnc1)c1csc(-c2ccccc2)n1`, the IC50 was > 100 µM (inactive).

In the case of `NC(=O)c1ccsc1NC(=O)c1ccc([N+](=O)[O-])s1`, the IC50 is reported as > 100 µM (inactive).

With `CC(C)(C)C(O)(CCc1ccc(Cl)cc1)Cn1cncn1` (stereo not drawn) the IC50 was > 100 µM (inactive).

In the case of `c1ccc2[nH]c(-c3ccc(N4CCCC4)nc3)nc2c1`, the IC50 is reported as > 100 µM (inactive).

With `CNC(=O)Oc1ccc(C(=O)NCc2ccccc2)cc1OC(=O)NC` the IC50 was > 100 µM (inactive).

In the case of `CC(C)Nc1nccc(-c2c(-c3ccc(F)cc3)ncn2C2CCOCC2)n1`, the IC50 is reported as > 100 µM (inactive).

For `CNc1c(C(N)=O)c(-c2ccc3scnc3c2)nn1CC(F)(F)F`, the IC50 was > 100 µM (inactive).

In the case of `CCOc1ccc(N(C)S(=O)(=O)c2ccc3[nH]cc(C(=O)NC4CCCC4)c(=O)c3c2)cc1`, the IC50 is reported as 50 µM.

With `Cc1cc(C)nc(N2CCC(N(Cc3cccnc3)C(=O)c3cccc(C#N)c3)CC2)n1` the IC50 was > 100 µM (inactive).

In the case of `CC(C)Oc1cccc(N2CCC(C(=O)N3CCCN(C(C)C)CC3)CC2)c1`, the IC50 is reported as > 100 µM (inactive).

With `COc1cc(OC)cc(C(=O)N[C@@H](CC(C)C)C(=O)NC2(C#N)CC2)c1` the IC50 was > 100 µM (inactive).

`CCCc1cc(C(=O)Nc2ncc(-c3cccc(Br)c3)n2C)n[nH]1` was tested, and the IC50 was > 100 µM (inactive).

`Cc1nc2c(-c3cccs3)c(C)nn2c(NCCO)c1C` was tested, and the IC50 was > 100 µM (inactive).

`O=C1c2cnc(N3CCCC3)nc2CN1c1ccc2c(c1)OCO2` was tested, and the IC50 was > 100 µM (inactive).

For `COc1ccc(-c2cnc(C)o2)cc1S(=O)(=O)Nc1ccc(C)cc1C`, the IC50 was > 100 µM (inactive).

For `O=C(COc1ccccc1)Nc1ccccc1C(=O)Nc1nccs1`, the IC50 was > 100 µM (inactive).

Work on `NCC(Cc1ccccc1)NC(=O)c1cnc(-c2c[nH]c3ncccc23)s1` (stereo not drawn) yielded an IC50 of 79 µM.

Compound `CN(Cc1nc2ccc(C(=O)NCC3CCCCC3)cc2[nH]1)C1CCCc2cccnc21` (stereo not drawn) has an IC50 of 16 µM.

`Cc1ccc2ccc(C(Nc3ccccn3)c3cccnc3)c(O)c2n1` (stereo not drawn) was tested, and the IC50 was 20 µM.

For `Cc1cc(NC(=O)c2ccc([N+](=O)[O-])s2)ccc1Br`, the IC50 was 40 µM.

In the case of `CC(C)(C)C(Cn1ccnc1)NC(=O)c1ccc2nc(C3CC3)oc2c1` (stereo not drawn), the IC50 is reported as > 100 µM (inactive).

`Cc1cc(Oc2cc(Cl)c(Cl)cc2Cl)n2ncnc2n1` showed an IC50 of 32 µM.

`Cc1nc2c(-c3n[nH]c(-c4ccccc4N)n3)cccn2c1C` gave an IC50 of 16 µM.

For `Oc1c(-c2n[nH]c(Cc3ccc(Cl)cc3)n2)ncc2cccnc12`, the IC50 was 40 µM.

Work on `COc1ccc(-c2csc(NC(=O)c3ccc([N+](=O)[O-])s3)n2)cc1OC` yielded an IC50 of 10 µM.

In the case of `CNc1cc(C)nc(C2CN(C(=O)c3n[nH]c4ccccc34)CCO2)c1` (stereo not drawn), the IC50 is reported as > 100 µM (inactive).

For `Cc1cc(N2CCc3ccccc3C2)nc(Nc2ccc(S(=O)(=O)N3CCOCC3)cc2)n1`, the IC50 was > 100 µM (inactive).

`c1ccc(-c2nc(NCc3ccco3)c3ccccc3n2)nc1` was tested, and the IC50 was > 100 µM (inactive).

In the case of `O=S(=O)(NCC(c1cccnc1)N1CCN(c2ccccc2F)CC1)c1ccc(F)cc1` (stereo not drawn), the IC50 is reported as > 100 µM (inactive).

For `O=C(CSc1ccc(-c2ccccn2)nn1)Nc1ccc(Cl)cc1`, the IC50 was > 100 µM (inactive).

For `COc1cc(OC)cc(C(NS(=O)(=O)c2ccc(Cl)c(C(F)(F)F)c2)c2nccn2C)c1` (stereo not drawn), the IC50 was > 100 µM (inactive).

`Clc1ccc(CN2CCN(C3=NCCN3)CC2)cc1Cl` was tested, and the IC50 was 63 µM.

In the case of `N#Cc1ccc(S(=O)(=O)N2CCN(Cc3cccc(-c4ccncc4)c3)CC2)cc1`, the IC50 is reported as > 100 µM (inactive).

`CCN(CC)c1ncc(C(=O)c2ccc([N+](=O)[O-])o2)s1` was tested, and the IC50 was 16 µM.

For `O=C(CCCn1cnc([N+](=O)[O-])n1)Nc1cccc(Cl)c1`, the IC50 was > 100 µM (inactive).

For `O=c1[nH]c(NCCCNCc2cc(Br)cc(Br)c2)nc2ccsc12`, the IC50 was 50 µM.

Work on `O=c1cc(NCCCNC2CCOc3c(I)cc(Cl)cc32)[nH]c2ccccc12` (stereo not drawn) yielded an IC50 of 63 µM.

For `CS(=O)(=O)c1cccc(-c2cnc(N)c3c(-c4ccc(CO)cc4)csc23)c1`, the IC50 was > 100 µM (inactive).

Work on `O=C(Nc1ccc(S(=O)(=O)N2CCCC2)cc1)c1ccc([N+](=O)[O-])s1` yielded an IC50 of 6.3 µM.

With `N#Cc1cc([N+](=O)[O-])ccc1NC1CCCCCC1` the IC50 was > 100 µM (inactive).

With `Oc1cccnc1-c1n[nH]c(Cc2ccccc2)n1` the IC50 was 79 µM.

`C=CCn1nc([N+](=O)[O-])nc1Oc1ccc(Cl)cc1Cl` was tested, and the IC50 was > 100 µM (inactive).

In the case of `COc1ccc(NS(=O)(=O)c2cc(NC(=O)Cc3ccc(C)cc3)ccc2N2CCOCC2)cc1`, the IC50 is reported as > 100 µM (inactive).

For `Cc1[nH]nc2c1C(c1ccc(OCc3ccccc3F)cc1)SCC(=O)N2` (stereo not drawn), the IC50 was > 100 µM (inactive).

For `O=C(CSc1nnc(-c2ccc3c(c2)OCO3)o1)N(Cc1ccco1)CC(F)(F)F`, the IC50 was > 100 µM (inactive).

`COc1ccc(C(=O)N2CCC(Nc3cccnc3)C2)c(OC)n1` (stereo not drawn) was tested, and the IC50 was > 100 µM (inactive).

`CCc1ccccc1[C@@H](C)NC(=O)c1cnc2c(cnn2CC)c1NC1CCN(C(N)=O)CC1` was tested, and the IC50 was > 100 µM (inactive).

For `Nc1nccc(-c2csc(Nc3ccc(Cl)cc3)n2)n1`, the IC50 was > 100 µM (inactive).

For `COc1ccccc1-n1c(SCC(=O)Nc2ccc3c(c2)OCO3)nc2c(c1=O)SCC2`, the IC50 was > 100 µM (inactive).

In the case of `CC1CCCN(S(=O)(=O)c2ccc(C(=O)Nc3nc(-c4ccccn4)cs3)cc2)C1` (stereo not drawn), the IC50 is reported as 40 µM.

In the case of `O=C(NCc1nnc2n1CCCCC2)c1csc(-c2ccccc2)n1`, the IC50 is reported as > 100 µM (inactive).

With `COc1ccc(C(C)(C)C)cc1S(=O)(=O)n1ccnc1` the IC50 was > 100 µM (inactive).

For `CNc1cncc(C2CCCN2C(=O)Cc2coc3cc(C)ccc23)n1` (stereo not drawn), the IC50 was > 100 µM (inactive).

Compound `Oc1c(-c2n[nH]c(Cc3ccc(F)cc3)n2)ncc2cccnc12` has an IC50 of 25 µM.

`CC1=NN(C(=O)CCn2cnc([N+](=O)[O-])n2)C(O)(C(F)(F)F)C1` (stereo not drawn) was tested, and the IC50 was > 100 µM (inactive).

Work on `COc1ccc(CNc2nsc3ccccc23)cc1OC` yielded an IC50 of 50 µM.

In the case of `COc1cccc(C(=O)[C@H]2C[C@@H]2CN(Cc2ccccn2)Cc2ccccn2)c1`, the IC50 is reported as > 100 µM (inactive).

For `CCc1cccc(CC)c1-n1c(SCC(=O)N2CC(=O)Nc3ccccc32)nnc1-c1cccnc1`, the IC50 was > 100 µM (inactive).

`Cc1cc(-c2cccc3ccccc23)nc2nc(N)nc(N)c12` gave an IC50 of 50 µM.

`COc1ccc(CN2CCCCC2c2nc(-c3cccnc3)no2)cc1` (stereo not drawn) was tested, and the IC50 was > 100 µM (inactive).

For `O=C(CN(Cc1ccccn1)Cc1ccccn1)NCc1ccc2c(c1)OCO2`, the IC50 was > 160 µM (inactive).

For `O=C(Nc1ncc([N+](=O)[O-])s1)C1CC1`, the IC50 was > 100 µM (inactive).

For `COc1cc(Nc2nccc(Nc3onc(C)c3C)n2)cc(S(=O)(=O)C2CCOCC2)c1`, the IC50 was 32 µM.

For `COc1ccc(Oc2ccc(C(C)N(C)c3ncc4c(N)nc(N)nc4n3)cc2)cc1` (stereo not drawn), the IC50 was 40 µM.

For `Cc1cccc(N2CCCN(Cc3c[nH]c4ccccc34)CC2)n1`, the IC50 was 13 µM.
